Results on five compounds are retold here after patent US11246922B1, “Vaccine RNA-peptide against SARS-CoV-2 with endogenous exosomes as carrier” (Elidan America, LLC., priority 2021, dated 2022).

Series [1] can be described thus: in vitro. As to conditions: human, WM-266 cells.
Series [2] in a line: in vitro. As to conditions: human, HEK293 cells.

≈ marks a conversion by molar mass, not a printed value. Ends that are not written are not given here.

As to CVNDTFAGSTFISDEVD [Peptide-A], the LC100 was 452 with HMEC-1 cell line; 447 in the series on BEAS-2B cell line; 450 with HEK293 cell line; 445 in the series on HUVEC cell line; 445 µg/µL with WM-266 cell line.

Regarding `CCCCCCCCCCCCCC(=O)O[C@@H]1[C@@H](C)[C@@]2(O)[C@@H](C=C(CO)C[C@]3(O)C(=O)C(C)=C[C@@H]23)[C@@H]2C(C)(C)[C@]12OC(C)=O` [PMA, Phorbol 12-myristate 13-acetate, reference compound], the CC50 (as a rule, the concentration at which the toxic effect on the cells reaches its halfway point) was found to be 291 µg/mL (≈ 472 µM) in the series on HMEC-1 cell line; 297 µg/mL (≈ 481 µM) in the series with BEAS-2B cell line; 275 µg/mL (≈ 446 µM) with HEK293 cell line; 272 µg/mL (≈ 441 µM) with HUVEC cell line; 310 µg/mL (≈ 503 µM) in the series on WM-266 cell line.

Turning to Phosphate-buffered saline [PBS], the LC100 with HMEC-1 cell line is 580; with BEAS-2B cell line, 616; with HEK293 cell line, 539; in the series on HUVEC cell line, 612; in the series with WM-266 cell line, 587 µg/µL.

Regarding “CVNDTFAGSTFISDEVDGVDEVAKKKSK [Peptide-AB]”, the CC50 was found to be 36 µg/mL in “in vitro [1]” and 6 µg/mL in the series “in vitro [2]”. Besides, the LC100 in the series on HMEC-1 cell line was 450; in the series on BEAS-2B cell line, 444; with HEK293 cell line it was 7; with HUVEC cell line it was 456; with WM-266 cell line it was 444 µg/µL.

On to GVDEVAKKKSK [Peptide-B], for which the LC100 with WM-266 cell line is 445 µg/µL.
